Tests used:
WSU-NHL = experiment: Combination study Compound 1 + Bcl-2 inhibitor, ATPLite 72 h, follicular lymphoma cell line; assay type: cell-based; conditions: combination with Compound 1
From the text: (§1) The method is described as follows. […] Additive effect is CI=1.0. […] Antagonistic effect is CI>1.0.

NCI-H929 = experiment: Combination study Compound 1 + Bcl-2 inhibitor, ATPLite 72 h, multiple myeloma cell line; assay type: cell-based; conditions: combination with Compound 1
From the text: (§2) The method is described as follows. […] Additive effect is CI=1.0. […] Antagonistic effect is CI>1.0. […] These cell lines include NCI-H929, OMP-2, and RPMI-8226.

OPM-2 = experiment: as above; assay type: cell-based; conditions: combination with Compound 1
From the text: as §2

RPMI-8226 = experiment: as above; assay type: cell-based; conditions: combination with Compound 1
From the text: as §2

Mino = experiment: Combination study Compound 1 + Bcl-2 inhibitor, ATPLite 72 h, mantle cell lymphoma cell line; assay type: cell-based; conditions: combination with Compound 1
From the text: The method is described as follows. […] Additive effect is CI=1.0. […] Antagonistic effect is CI>1.0. […] These cell lines include GRANTA-519, Jeko-1 and Mino.

KARPAS-422 = experiment: Combination study Compound 1 + Bcl-2 inhibitor, ATPLite 72 h, follicular lymphoma cell line; assay type: cell-based; conditions: combination with Compound 1
From the text: (§3) The method is described as follows.

RL = experiment: as above; assay type: cell-based; conditions: combination with Compound 1
From the text: as §3

GRANTA-519 = experiment: Combination study Compound 1 + Bcl-2 inhibitor, ATPLite 72 h, mantle cell lymphoma cell line; assay type: cell-based; conditions: combination with Compound 1
From the text: (§4) The method is described as follows. […] These cell lines include GRANTA-519, Jeko-1 and Mino.

Jeko-1 = experiment: as above; assay type: cell-based; conditions: combination with Compound 1
From the text: as §4

HBL-1 = experiment: Combination study Compound 1 + Bcl-2 inhibitor, ATPLite 72 h, DLBCL ABC cell line; assay type: cell-based; conditions: combination with Compound 1
From the text: as §3

TMD8 = experiment: as above; assay type: cell-based; conditions: combination with Compound 1
From the text: as §3

OCI-Ly3 = experiment: as above; assay type: cell-based; conditions: combination with Compound 1
From the text: as §3

U-2932 = experiment: as above; assay type: cell-based; conditions: combination with Compound 1
From the text: as §3

SU-DHL-10-epst = experiment: Combination study Compound 1 + Bcl-2 inhibitor, ATPLite 72 h, DLBCL GCB cell line; assay type: cell-based; conditions: combination with Compound 1
From the text: as §3

Farage = experiment: as above; assay type: cell-based; conditions: combination with Compound 1
From the text: as §3

OCI-Ly7 = experiment: as above; assay type: cell-based; conditions: combination with Compound 1
From the text: as §3

KARPAS-299 = experiment: Combination study Compound 1 + Bcl-2 inhibitor, ATPLite 72 h, T-cell lymphoma cell line; assay type: cell-based; conditions: combination with Compound 1
From the text: (§5) The method is described as follows. […] The cell line includes HH and Karpas-299.

HH = experiment: as above; assay type: cell-based; conditions: combination with Compound 1
From the text: as §5

SU-DHL-4-epst = experiment: Combination study Compound 1 + Bcl-2 inhibitor, ATPLite 72 h, DLBCL GCB cell line; assay type: cell-based; conditions: combination with Compound 1
From the text: as §1

DOHH-2 = experiment: as above; assay type: cell-based; conditions: combination with Compound 1
From the text: as §1

SU-DHL-4 control clones = experiment: CTG (CellTiter-Glo) assay, control (DMSO-treated) clones; assay type: cell-based; conditions: Homo sapiens, read-out: AVG Cpnd 1 IC50
Description: (§6) Experiments were performed to examine the pathway and gene expression alterations in a cell line resistant to PI3K inhibitors. SU-DHL-4 is a DLBCL cell line. […] Five clones from each group were expanded. Cells were harvested for various assays, including CellTiter-Glo® assays, PD, RNA analysis, DNA analysis, and short tandem repeat (STR) fingerprinting.
(§7) Five clones from each group were expanded. Cells were harvested for various assays, including CTG (CellTiter-Glo, Promega, an assay that measures ATP levels as a surrogate for cell number in order to observe cell viability and changes in proliferation rate), PD (pharmacodynamic), RNA analysis, DNA analysis, and short tandem repeat (STR) fingerprinting. […] See, e.g., FIG. 16.

[1] = system: SU-DHL-4 Compound 1 resistant clones; experiment: CTG (CellTiter-Glo) assay, Compound 1 resistant clones; assay type: cell-based; conditions: Homo sapiens, Cpnd 1 resistant clones
Description: as §6, §7

[2] = system: SU-DHL-4 IBR resistant clones; experiment: CTG (CellTiter-Glo) assay, ibrutinib resistant clones; assay type: cell-based; conditions: Homo sapiens, read-out: AVG Cpnd 1 IC50
Description: as §6

CLL = experiment: Compound 1 monotherapy in a patient with CLL (clinical trial); assay type: in vivo, human; conditions: 25 mg bid monotherapy
Description: A patient diagnosed with CLL was treated by a monotherapy of Compound 1 (25 mg bid) in a clinical trial. Serum samples of the patient were collected at various points in the treatment. The copy number of STK11 in the serum samples was determined by CytoScan (Affymetrix).

Bcl-2 family genes = experiment: RNAseq gene expression changes in peripheral blood of Compound 1-treated CLL patients; assay type: in vivo, human
Description: RNAseq technology was used to measure gene expression changes in peripheral blood in patients treated with Compound 1. The patients were treated as part of a clinical trial (identifier NCT01476657) which is a phase 1 study in patients with advanced hematologic malignancies. Briefly, RNA was extracted from 200 ul of blood using TRI reagent, followed by RNA purification using a Zymo-Spin column. Timepoints were taken at baseline and cycle 1 day 8 (C1D8), which is 7 days of Compound 1 treatment. Expression was quantified using both FPKM and VOOM methods. Filters were used to prioritize genes identified during this analysis.

[3] = peripheral blood, Compound 1-treated patients, baseline vs C1D8

**Q.** Which results are given for `CC1(C)CCC(c2ccc(Cl)cc2)=C(CN2CCN(c3ccc(C(=O)NS(=O)(=O)c4ccc(N[C@H](CCN5CCOCC5)CSc5ccccc5)c(S(=O)(=O)C(F)(F)F)c4)cc3)CC2)C1` [ABT-263, (R)-4-(4-((4′-chloro-4,4-dimethyl-3,4,5,6-tetrahydro-[1,1′-biphenyl]-2-yl)methyl)piperazin-1-yl)-N-((4-((4-morpholino-1-(phenylthio)butan-2-yl)amino)-3((trifluoromethyl)sulfonyl)phenyl)sulfonyl)benzamide]?
**A.** CI50 growth inhibition (WSU-NHL): T (T=0.5 to <0.7); CI50 inhibition (WSU-NHL): S (S=0.1 to <0.5); Synergy score growth inhibition (WSU-NHL): A4 (A4=≥10); Synergy score inhibition (WSU-NHL): A3 (A3=3 to <10); CI50 growth inhibition (NCI-H929): U (U=0.7 to <1); CI50 inhibition (NCI-H929): T (T=0.5 to <0.7); Synergy score growth inhibition (NCI-H929): A2 (A2=1 to <3); Synergy score inhibition (NCI-H929): A2 (A2=1 to <3); CI50 growth inhibition (OPM-2): T (T=0.5 to <0.7); CI50 inhibition (OPM-2): U (U=0.7 to <1); Synergy score growth inhibition (OPM-2): A3 (A3=3 to <10); Synergy score inhibition (OPM-2): A2 (A2=1 to <3); CI50 growth inhibition (RPMI-8226): T (T=0.5 to <0.7); CI50 inhibition (RPMI-8226): U (U=0.7 to <1); Synergy score growth inhibition (RPMI-8226): A3 (A3=3 to <10); Synergy score inhibition (RPMI-8226): A2 (A2=1 to <3); CI50 growth inhibition (Mino): S (S=0.1 to <0.5); CI50 inhibition (Mino): T (T=0.5 to <0.7); Synergy score growth inhibition (Mino): A3 (A3=3 to <10); Synergy score inhibition (Mino): A2 (A2=1 to <3); CI50 growth inhibition (KARPAS-422): S (S=0.1 to <0.5); CI50 inhibition (KARPAS-422): T (T=0.5 to <0.7); Synergy score growth inhibition (KARPAS-422): A4 (A4=≥10); Synergy score inhibition (KARPAS-422): A3 (A3=3 to <10); CI50 growth inhibition (RL): U (U=0.7 to <1); CI50 inhibition (RL): U (U=0.7 to <1); Synergy score growth inhibition (RL): A3 (A3=3 to <10); Synergy score inhibition (RL): A1 (A1=0.0001 to <1); CI50 growth inhibition (GRANTA-519): S (S=0.1 to <0.5); CI50 inhibition (GRANTA-519): W (W=≥1); Synergy score growth inhibition (GRANTA-519): A3 (A3=3 to <10); Synergy score inhibition (GRANTA-519): A1 (A1=0.0001 to <1); CI50 growth inhibition (Jeko-1): S (S=0.1 to <0.5); CI50 inhibition (Jeko-1): S (S=0.1 to <0.5); Synergy score growth inhibition (Jeko-1): A3 (A3=3 to <10); Synergy score inhibition (Jeko-1): A3 (A3=3 to <10); CI50 growth inhibition (HBL-1): S (S=0.1 to <0.5); CI50 inhibition (HBL-1): U (U=0.7 to <1); Synergy score growth inhibition (HBL-1): A3 (A3=3 to <10); Synergy score inhibition (HBL-1): A2 (A2=1 to <3); CI50 growth inhibition (TMD8): S (S=0.1 to <0.5); CI50 inhibition (TMD8): T (T=0.5 to <0.7); Synergy score growth inhibition (TMD8): A3 (A3=3 to <10); Synergy score inhibition (TMD8): A2 (A2=1 to <3); CI50 growth inhibition (OCI-Ly3): U (U=0.7 to <1); CI50 inhibition (OCI-Ly3): W (W=≥1); Synergy score growth inhibition (OCI-Ly3): A3 (A3=3 to <10); Synergy score inhibition (OCI-Ly3): A1 (A1=0.0001 to <1); CI50 growth inhibition (U-2932): T (T=0.5 to <0.7); CI50 inhibition (U-2932): T (T=0.5 to <0.7); Synergy score growth inhibition (U-2932): A3 (A3=3 to <10); Synergy score inhibition (U-2932): A2 (A2=1 to <3); CI50 growth inhibition (SU-DHL-10-epst): U (U=0.7 to <1); CI50 inhibition (SU-DHL-10-epst): U (U=0.7 to <1); Synergy score growth inhibition (SU-DHL-10-epst): A3 (A3=3 to <10); Synergy score inhibition (SU-DHL-10-epst): A2 (A2=1 to <3); CI50 growth inhibition (Farage): T (T=0.5 to <0.7); CI50 inhibition (Farage): T (T=0.5 to <0.7); Synergy score growth inhibition (Farage): A3 (A3=3 to <10); Synergy score inhibition (Farage): A2 (A2=1 to <3); CI50 growth inhibition (OCI-Ly7): W (W=≥1); Synergy score growth inhibition (OCI-Ly7): A1 (A1=0.0001 to <1); Synergy score inhibition (OCI-Ly7): A1 (A1=0.0001 to <1); Synergy score growth inhibition (KARPAS-299): A1 (A1=0.0001 to <1); Synergy score inhibition (KARPAS-299): A1 (A1=0.0001 to <1); CI50 growth inhibition (HH): U (U=0.7 to <1); CI50 inhibition (HH): S (S=0.1 to <0.5); Synergy score growth inhibition (HH): A3 (A3=3 to <10); Synergy score inhibition (HH): A2 (A2=1 to <3); CI50 growth inhibition (SU-DHL-4-epst): T (T=0.5 to <0.7); CI50 inhibition (SU-DHL-4-epst): S (S=0.1 to <0.5); Synergy score growth inhibition (SU-DHL-4-epst): A4 (A4=≥10); Synergy score inhibition (SU-DHL-4-epst): A3 (A3=3 to <10); CI50 growth inhibition (DOHH-2): S (S=0.1 to <0.5); CI50 inhibition (DOHH-2): S (S=0.1 to <0.5); Synergy score growth inhibition (DOHH-2): A4 (A4=≥10); Synergy score inhibition (DOHH-2): A3 (A3=3 to <10)

**Q.** Which IC50 (SU-DHL-4 control clones) does the source give for `C[C@H](Nc1ncnc2[nH]cnc12)c1cc2cccc(Cl)c2c(=O)n1-c1ccccc1` [Compound 1, (S)-3-(1-((9H-purin-6-yl)amino)ethyl)-8-chloro-2-phenylisoquinolin-1(2H)-one] here?
**A.** Its IC50 is 241 ± 17 nM.

**Q.** What about the IC50 [1] of the same molecule?
**A.** The IC50 was 5420 ± 1080 nM.

**Q.** And the IC50 [2]?
**A.** Its IC50 is 805 ± 339 nM.

**Q.** And the patient response (CLL; after C7 (cycle 7))?
**A.** Its patient response is “progressed”.

**Q.** What about the patient response (CLL; at C3D1 (cycle 3, day 1)) of the same molecule?
**A.** Its patient response is “partial response”.

**Q.** What about the “HRK expression level increase” value (Bcl-2 family genes; many of the patients having stable disease or partial remission, after 7 days of Compound 1 treatment, FIG. 7) of the same molecule?
**A.** The value was “at least 1.5 fold”.

**Q.** What about the “BBC3 (also called PUMA) gene expression change” value (Bcl-2 family genes; [3]) of the same molecule?
**A.** Its value is “up-regulated”.

**Q.** What about the “BIK gene expression change” value (Bcl-2 family genes; [3]) of the same molecule?
**A.** The value was “downregulated”.

**Q.** And the “BMF gene expression change” value (Bcl-2 family genes; [3])?
**A.** The value was “up-regulated”.

**Q.** And the “Bcl2L11 (also called BIM) gene expression change” value (Bcl-2 family genes; [3])?
**A.** Its value is “up-regulated”.

**Q.** And the “Bcl2 gene expression change” value (Bcl-2 family genes; [3])?
**A.** Its value is “up-regulated”.

**Q.** And the “HRK gene expression change” value (Bcl-2 family genes; [3])?
**A.** The value was “up-regulated”.

**Q.** What about the “PMAIP1 (also called NOXA) gene expression change” value (Bcl-2 family genes; [3]) of the same molecule?
**A.** The value was “up-regulated”.

— patent US11110096B2, “Combination therapies” (Infinity Pharmaceuticals, Inc., priority 2014, dated 2021)
